Numbered stars: 1 amine (or outer) side, 2 acyl side, 3 side chain; on linkers, the order of the positions; unused ones are H or OH. Bridge positions count the residues as written; N and C are the ends. Square brackets hold non-standard residues; d marks the D form. Peptide text beside a SMILES is read from it. Adda = CO[C@@H](Cc1ccccc1)[C@@H](C)/C=C(C)/C=C/[C@H](N[*:1])[C@H](C)C(=O)[*:2]; dAsp(3S-Me) = C[C@H](C(=O)[*:3])[C@@H](N[*:1])C(=O)[*:2]; d(γGlu) = O=C(O)[C@@H](CCC(=O)[*:2])N[*:1]; NMeDha = C=C(NC)C(=O)O
Experiments:
[1] = target: T1, Solute carrier organic anion transporter family member 1A2 (OATP1A2) (Homo sapiens, UniProt P46721); test: (§1) TP_TRANSPORTER: uptake in Xenopus laevis oocytes; format: functional, cell-based, Oocyte
T1 sequence (P46721 whole entry): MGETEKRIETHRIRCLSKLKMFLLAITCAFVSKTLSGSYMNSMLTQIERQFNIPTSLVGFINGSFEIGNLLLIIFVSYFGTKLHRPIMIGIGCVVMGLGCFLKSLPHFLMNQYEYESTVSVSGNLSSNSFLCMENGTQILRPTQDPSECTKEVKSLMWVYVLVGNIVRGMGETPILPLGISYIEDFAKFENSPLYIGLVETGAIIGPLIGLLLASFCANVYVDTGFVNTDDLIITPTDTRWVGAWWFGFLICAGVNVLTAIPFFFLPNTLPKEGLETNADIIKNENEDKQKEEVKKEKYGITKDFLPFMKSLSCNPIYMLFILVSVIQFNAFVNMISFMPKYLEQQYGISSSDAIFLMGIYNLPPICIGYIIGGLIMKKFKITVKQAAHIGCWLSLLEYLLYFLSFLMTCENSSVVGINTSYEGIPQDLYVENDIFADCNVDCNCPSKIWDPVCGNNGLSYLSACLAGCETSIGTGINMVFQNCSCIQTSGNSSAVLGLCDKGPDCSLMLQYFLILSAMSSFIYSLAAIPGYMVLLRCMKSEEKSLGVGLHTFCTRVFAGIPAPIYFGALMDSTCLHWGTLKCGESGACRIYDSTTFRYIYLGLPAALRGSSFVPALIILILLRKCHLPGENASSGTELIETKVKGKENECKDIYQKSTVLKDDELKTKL

[2] = target: T2, Solute carrier organic anion transporter family member 1B1 (OATP1B1) (Homo sapiens, UniProt Q9Y6L6); test: as §1; format: functional, cell-based, Oocyte
T2 sequence (Q9Y6L6 whole entry): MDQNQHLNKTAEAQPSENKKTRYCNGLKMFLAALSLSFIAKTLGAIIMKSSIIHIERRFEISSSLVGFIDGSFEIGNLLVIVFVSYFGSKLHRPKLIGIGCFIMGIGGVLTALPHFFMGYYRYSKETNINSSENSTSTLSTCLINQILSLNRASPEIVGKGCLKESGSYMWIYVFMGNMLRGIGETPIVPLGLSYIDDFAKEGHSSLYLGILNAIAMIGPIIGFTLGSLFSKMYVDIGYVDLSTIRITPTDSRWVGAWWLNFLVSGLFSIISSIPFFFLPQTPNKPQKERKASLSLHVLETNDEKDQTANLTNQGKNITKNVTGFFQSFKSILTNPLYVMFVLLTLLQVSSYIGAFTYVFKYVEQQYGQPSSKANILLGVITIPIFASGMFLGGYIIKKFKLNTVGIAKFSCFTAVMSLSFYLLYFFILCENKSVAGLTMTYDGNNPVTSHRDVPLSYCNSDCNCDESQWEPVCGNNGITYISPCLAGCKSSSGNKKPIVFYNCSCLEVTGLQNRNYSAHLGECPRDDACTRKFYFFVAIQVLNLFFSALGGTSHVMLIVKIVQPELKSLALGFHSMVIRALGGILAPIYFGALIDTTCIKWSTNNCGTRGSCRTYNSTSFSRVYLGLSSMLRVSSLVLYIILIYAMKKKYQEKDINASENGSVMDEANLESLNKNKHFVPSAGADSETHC

[3] = target: T3, Solute carrier organic anion transporter family member 1B3 (OATP1B3) (Homo sapiens, UniProt Q9NPD5); test: as §1; format: functional, cell-based, Oocyte
T3 sequence (Q9NPD5 whole entry): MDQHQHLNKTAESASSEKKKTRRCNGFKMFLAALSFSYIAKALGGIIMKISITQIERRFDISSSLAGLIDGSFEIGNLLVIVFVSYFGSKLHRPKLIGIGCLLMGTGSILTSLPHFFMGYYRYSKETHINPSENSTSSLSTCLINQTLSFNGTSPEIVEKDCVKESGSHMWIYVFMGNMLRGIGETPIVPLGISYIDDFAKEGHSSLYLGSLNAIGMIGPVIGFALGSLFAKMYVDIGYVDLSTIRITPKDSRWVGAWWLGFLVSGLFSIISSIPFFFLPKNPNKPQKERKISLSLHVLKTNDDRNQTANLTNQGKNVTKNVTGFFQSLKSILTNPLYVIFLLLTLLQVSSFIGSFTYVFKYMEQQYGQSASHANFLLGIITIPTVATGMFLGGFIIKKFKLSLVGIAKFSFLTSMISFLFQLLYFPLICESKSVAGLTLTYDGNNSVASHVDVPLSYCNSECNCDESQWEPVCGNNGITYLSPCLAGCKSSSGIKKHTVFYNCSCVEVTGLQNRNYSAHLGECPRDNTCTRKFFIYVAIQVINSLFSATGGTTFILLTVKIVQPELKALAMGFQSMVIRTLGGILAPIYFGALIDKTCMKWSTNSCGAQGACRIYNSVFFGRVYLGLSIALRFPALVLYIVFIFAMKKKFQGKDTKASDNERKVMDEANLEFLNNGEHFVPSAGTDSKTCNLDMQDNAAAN

[4] = target: T4, Solute carrier organic anion transporter family member 1A4 (Rattus norvegicus, UniProt O35913); test: as §1; format: functional, cell-based; conditions: oocyte
T4 sequence (O35913 whole entry): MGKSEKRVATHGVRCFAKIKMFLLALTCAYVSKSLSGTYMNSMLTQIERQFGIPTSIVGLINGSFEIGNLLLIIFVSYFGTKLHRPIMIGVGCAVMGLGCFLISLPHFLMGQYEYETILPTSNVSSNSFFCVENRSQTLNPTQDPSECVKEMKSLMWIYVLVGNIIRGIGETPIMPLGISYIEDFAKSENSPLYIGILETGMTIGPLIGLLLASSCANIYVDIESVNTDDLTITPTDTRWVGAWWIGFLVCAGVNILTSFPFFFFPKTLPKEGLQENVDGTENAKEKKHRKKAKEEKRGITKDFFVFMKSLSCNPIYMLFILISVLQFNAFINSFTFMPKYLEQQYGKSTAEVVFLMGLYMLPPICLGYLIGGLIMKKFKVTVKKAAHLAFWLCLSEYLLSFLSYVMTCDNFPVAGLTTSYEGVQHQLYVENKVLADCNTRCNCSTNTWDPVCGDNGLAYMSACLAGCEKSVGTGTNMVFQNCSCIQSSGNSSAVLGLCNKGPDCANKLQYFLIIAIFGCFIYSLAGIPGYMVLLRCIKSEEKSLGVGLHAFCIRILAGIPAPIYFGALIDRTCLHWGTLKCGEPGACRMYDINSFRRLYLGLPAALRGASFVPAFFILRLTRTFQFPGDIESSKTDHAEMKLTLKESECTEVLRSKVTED

[5] = target: T5, Solute carrier organic anion transporter family member 2B1 (Homo sapiens, UniProt O94956); test: as §1; format: functional, cell-based; conditions: oocyte
T5 sequence (O94956 whole entry): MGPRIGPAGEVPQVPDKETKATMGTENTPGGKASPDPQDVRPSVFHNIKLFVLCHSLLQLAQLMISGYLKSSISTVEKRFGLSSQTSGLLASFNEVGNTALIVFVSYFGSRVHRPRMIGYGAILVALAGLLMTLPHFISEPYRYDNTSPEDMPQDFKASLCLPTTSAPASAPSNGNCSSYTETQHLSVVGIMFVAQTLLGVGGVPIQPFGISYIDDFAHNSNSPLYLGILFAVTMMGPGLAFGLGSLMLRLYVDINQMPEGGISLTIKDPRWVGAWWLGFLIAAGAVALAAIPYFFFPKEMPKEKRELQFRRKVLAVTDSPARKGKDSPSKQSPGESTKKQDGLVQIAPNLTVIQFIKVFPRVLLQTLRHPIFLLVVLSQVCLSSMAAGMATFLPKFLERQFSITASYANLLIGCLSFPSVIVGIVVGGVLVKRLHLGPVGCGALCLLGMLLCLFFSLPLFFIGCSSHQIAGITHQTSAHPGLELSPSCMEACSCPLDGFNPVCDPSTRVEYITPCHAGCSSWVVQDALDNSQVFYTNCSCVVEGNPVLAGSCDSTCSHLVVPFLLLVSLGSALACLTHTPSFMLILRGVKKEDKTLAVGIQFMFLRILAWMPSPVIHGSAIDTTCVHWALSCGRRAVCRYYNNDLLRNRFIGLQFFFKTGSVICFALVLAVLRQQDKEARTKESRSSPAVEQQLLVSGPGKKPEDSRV

[6] = target: T6, Solute carrier organic anion transporter family member 1B2 (Rattus norvegicus, UniProt Q9QZX8); test: as §1; format: functional, cell-based; conditions: oocyte
T6 sequence (Q9QZX8 whole entry): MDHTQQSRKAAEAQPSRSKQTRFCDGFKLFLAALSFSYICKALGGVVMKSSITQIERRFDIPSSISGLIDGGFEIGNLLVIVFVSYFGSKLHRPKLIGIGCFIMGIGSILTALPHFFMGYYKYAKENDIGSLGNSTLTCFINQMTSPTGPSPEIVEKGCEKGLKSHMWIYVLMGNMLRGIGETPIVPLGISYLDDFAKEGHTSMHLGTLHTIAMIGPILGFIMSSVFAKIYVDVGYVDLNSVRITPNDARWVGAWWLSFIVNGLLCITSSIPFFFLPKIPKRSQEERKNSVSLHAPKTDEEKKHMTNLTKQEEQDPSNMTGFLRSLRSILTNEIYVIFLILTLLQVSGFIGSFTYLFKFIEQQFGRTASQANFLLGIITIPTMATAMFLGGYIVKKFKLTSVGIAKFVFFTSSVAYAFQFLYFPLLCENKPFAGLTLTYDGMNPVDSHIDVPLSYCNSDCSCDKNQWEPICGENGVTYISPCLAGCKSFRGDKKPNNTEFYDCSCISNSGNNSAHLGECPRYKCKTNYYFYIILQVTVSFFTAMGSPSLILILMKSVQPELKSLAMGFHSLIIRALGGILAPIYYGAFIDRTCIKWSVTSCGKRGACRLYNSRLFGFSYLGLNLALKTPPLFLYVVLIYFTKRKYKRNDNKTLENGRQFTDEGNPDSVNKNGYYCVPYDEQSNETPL

[7] = target: T7, Solute carrier organic anion transporter family member 1A1 (Rattus norvegicus, UniProt P46720); test: as §1; format: functional, cell-based; conditions: oocyte
T7 sequence (P46720 whole entry): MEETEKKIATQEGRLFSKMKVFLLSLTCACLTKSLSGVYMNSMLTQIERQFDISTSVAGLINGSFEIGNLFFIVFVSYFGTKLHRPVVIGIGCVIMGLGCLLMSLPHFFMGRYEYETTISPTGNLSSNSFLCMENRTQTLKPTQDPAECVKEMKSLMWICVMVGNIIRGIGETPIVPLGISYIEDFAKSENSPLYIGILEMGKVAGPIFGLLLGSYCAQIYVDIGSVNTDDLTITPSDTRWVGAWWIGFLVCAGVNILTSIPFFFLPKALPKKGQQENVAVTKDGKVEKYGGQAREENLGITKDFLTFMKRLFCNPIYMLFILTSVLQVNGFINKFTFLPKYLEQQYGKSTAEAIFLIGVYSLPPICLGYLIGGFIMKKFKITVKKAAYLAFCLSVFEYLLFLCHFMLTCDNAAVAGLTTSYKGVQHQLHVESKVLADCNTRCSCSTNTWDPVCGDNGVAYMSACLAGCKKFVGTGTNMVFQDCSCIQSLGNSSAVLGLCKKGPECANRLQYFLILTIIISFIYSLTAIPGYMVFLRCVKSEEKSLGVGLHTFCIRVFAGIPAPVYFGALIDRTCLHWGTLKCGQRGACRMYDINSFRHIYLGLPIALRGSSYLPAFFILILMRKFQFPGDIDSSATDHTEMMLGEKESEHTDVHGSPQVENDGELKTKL

SMILES: C=C1C(=O)N[C@H](C)C(=O)N[C@@H](CC(C)C)C(=O)N[C@@H](C(=O)O)[C@H](C)C(=O)N[C@@H](CCCNC(=N)N)C(=O)N[C@@H](/C=C/C(C)=C/[C@H](C)[C@H](Cc2ccccc2)OC)[C@H](C)C(=O)N[C@@H](C(=O)O)CCC(=O)N1C [MICROCYSTIN-LR] (R[Adda][d(γGlu)][NMeDha][dA]L[dAsp(3S-Me)]-OH; lactam N-7)
- Km [1]: 20 µM
- Km [2]: 12.4 µM
- Km [3]: 12.4 µM
- Activity [4]: is not a substrate [(-)]
- Activity [5]: is not a substrate [(-)]
- Activity [6]: substrate [(+)]
- Activity [7]: is not a substrate [(-)]
